Data reported in PMC5355811 (Nature Communications, 2017).
“And” between values parts separate entries of the source, which are not always exact repeats. Equal values may be shown once. Read-outs that look alike come from different tables or passages of the source.

Legend:
Assay type in all cases: cell-based
[1] = test system: Ba/F3 cells of EGFR-T790M/del19; experiment: Drug sensitivity screening at 100 nM, Ba/F3 EGFR-T790M/del19; conditions: for Relative cell viability (% of DMSO control): 100 nM; for viability at 0.1 µM: Mus musculus, BaF3, 72 h, read-out: Relative cell viability (ratio to DMSO control), del19/T790M
Procedure: (§1) After the incubation, cell viability was measured using CellTiter-Glo assay. The relative cell viability was calculated as a ratio of each value to that of the DMSO control.

[2] = test system: Ba/F3 cells of EGFR-del19; experiment: Drug sensitivity screening at 100 nM, Ba/F3 EGFR-del19; conditions: for Relative cell viability (% of DMSO control) in del19 Ba/F3 cells: 100 nM; for viability at 0.1 µM: Mus musculus, BaF3, 72 h, read-out: Relative cell viability (ratio to DMSO control), del19
Procedure: as §1

[3] = test system: Ba/F3 cells of EGFR-C797S/T790M/del19; experiment: Drug sensitivity screening at 100 nM, Ba/F3 EGFR-C797S/T790M/del19; conditions: Mus musculus, BaF3, 72 h, 100 nM inhibitor, 72 h, DMSO = 100; mean of three independent experiments (Fig. 1a data)
Procedure: as §1

[4] = 100 nM inhibitor, 72 h, DMSO = 100, mean of three independent experiments (Fig. 1a data)

SMILES | Relative cell viability (ratio to DMSO control), del19/T790M [1, 4] | Relative cell viability (% of DMSO control) ([1]; 72 h, DMSO = 100, experiment 1) | Relative cell viability (% of DMSO control) ([1]; 72 h, DMSO = 100, experiment 2) | Relative cell viability (% of DMSO control) ([1]; 72 h, DMSO = 100, experiment 3) | Relative cell viability (ratio to DMSO control), del19 [2, 4] | Relative cell viability (% of DMSO control) in del19 Ba/F3 cells ([2]; 72 h, DMSO = 100, experiment 1) | Relative cell viability (% of DMSO control) in del19 Ba/F3 cells ([2]; 72 h, DMSO = 100, experiment 2) | Relative cell viability (% of DMSO control) in del19 Ba/F3 cells ([2]; 72 h, DMSO = 100, experiment 3) | viability at 0.1 µM [3] | viability at 0.1 µM [1, 4] | viability at 0.1 µM [2, 4] | viability at 0.1 µM [1] | viability at 0.1 µM [2]
O=C(C(c1ccccc1)c1ccccc1)N1CCN(CC(O)COc2cccc3ncccc23)CC1 (stereo not shown) [MS209] | 109.461 | 106.534 | 123.336 | 98.5141 | 105.44 | 97.9213 | 113.609 | 104.789 | – | – | – | – | –
CO[C@H]1C[C@@H]2CC[C@@H](C)[C@@](O)(O2)C(=O)C(=O)N2CCCC[C@H]2C(=O)O[C@H]([C@H](C)C[C@@H]2CC[C@@H](OCCO)[C@H](OC)C2)CC(=O)[C@H](C)/C=C(\C)[C@@H](O)[C@@H](OC)C(=O)[C@H](C)C[C@H](C)/C=C/C=C/C=C/1C [Everolimus, everolimus] | – | 31.3636 | 39.0956 | 30.3952 | – | 25.026 | 29.0998 | 35.5918 | 28% | 33.6% | 29.9% | – | –
COc1cc2nccc(Oc3ccc(NC(=O)C4(C(=O)Nc5ccc(F)cc5)CC4)cc3)c2cc1OC [XL184] | – | 91.4569 | 111.038 | 110.02 | – | 97.6803 | 120.752 | 111.655 | 137% | 104% | 110% | – | –
C[C@]12O[C@H](C[C@]1(O)CO)n1c3ccccc3c3c4c(c5c6ccccc6n2c5c31)CNC4=O [CEP701] | – | – | – | – | – | – | – | – | – | – | – | 7.99% | 2.57%
CS(=O)(=O)CCNCc1ccc(-c2ccc3ncnc(Nc4ccc(OCc5cccc(F)c5)c(Cl)c4)c3c2)o1 [Lapatinib, lapatinib] | – | – | – | – | – | – | – | – | – | – | – | 102% | 128%
Cc1ccc(NC(=O)c2ccc(CN3CCN(C)CC3)cc2)cc1Nc1nccc(-c2cccnc2)n1 [Imatinib, imatinib] | – | – | – | – | – | – | – | – | 129% | – | – | – | –
COc1cc2nccc(Oc3ccc(NC(=O)NC4CC4)c(Cl)c3)c2cc1C(N)=O [E7080] | 118.49 and 118.491 | 107.332 | 130.309 | 117.831 | 104.13 and 104.131 | 87.8792 | 107.525 | 116.989 | – | – | – | – | –
C=CCNC1=C2C[C@@H](C)C[C@H](OC)[C@H](O)[C@@H](C)/C=C(\C)[C@H](OC(N)=O)[C@@H](OC)/C=C\C=C(/C)C(=O)NC(=CC1=O)C2=O [17-AAG] | 63.86 | 65.6049 | 64.9663 | 61.0089 | 54.15 and 54.1494 | 47.4299 | 59.7934 | 55.225 | – | – | – | – | –
Cc1nc2ccc(-n3ncc(C(=O)c4cc5ccccc5[nH]4)c3N)cc2[nH]1 [CH5183284] | 100.76 and 100.762 | 87.4669 | 110.946 | 103.872 | 111.23 and 111.228 | 100.01 | 123.157 | 110.518 | – | – | – | – | –
